Test results from patent US6750256B1, “Use of aromatic aldehydes as insecticides” (Proguard, Inc., priority 1994, dated 2004).

Key:
[1] = test system: adult Aedes aegypti mosquitos; assay: Mosquito adulticide treated filter paper test; type: in vivo
Experimental: The toxicity of the formulation for mosquitos was determined using adult Aedes aegypti mosquitos from the University of California Mosquito Control Research Laboratory at the Kearney Agricultural Center. The experiments were performed as double blind studies.
One ml test formulation was pipetted onto 11 cm #2 Whatman filter paper circle cut to fit shell vials (84 mm×23 mm) which was air dried at room temperature for two hours and placed in a shell vial (84 mm×23 mm). Twenty unblooded adult female mosquitos approximately four days of age were aspirated using gentle suction into each shell vial. The open end of the vial was covered with 1 mm nylon mesh and filter paper cut to fit for complete coverage from an 11 cm #2 Whatman filter paper circle. The vials were placed in a polyethylene mosquito bag (46 cm×20 cm) with a wet paper towel inside and loosely sealed. The bag was gently inflated by gently blowing in air and placed in an incubator at 22° C. for 24 hours with a day light cycle (14 hrs light; 10 hrs dark). Untreated paper and paper treated with H2O were used as controls. Mortality was determined by counting the number of dead mosquitos.
The efficacy of various concentrations of cinnamic aldehyde in a formulation of 2% Tween 80, 6% NaHCO3 was tested, using concentrations of cinnamic aldehyde ranging from 25,000 ppm to 10 ppm with and without the addition of saponin, 1:60 dilution of a 10° Brix solution. At concentrations down to 100 ppm added to the filter paper, 100% of the mosquitos were killed. At 10 ppm added to the filer paper, 78% of the mosquitos were killed in the absence of saponin, but only 5% with saponin 14% of mosquitos were killed with the addition of 2% Tween 80 and 6% NaHCO3 alone to the filter paper and 50% with the further addition of a 1:60 dilution 10° Brix saponin. The percent mortality is the average of three replications, with corrections for control mortality. Malathion was used as a positive control.

[2] = test system: melon aphid (Aphis gossypii Glover); assay: Melon aphid plant foliar bioassay on flowering chrysanthemums; type: in vivo; conditions: each concentration (1,000, 3,000, 10,000 ppm); after 36 hours; pre-count mean of about 60
Experimental: Treatment of melon aphid (Aphis gossypii Glover) is conducted as follows. Plants were grown in […] pots in planting soil in greenhouse. Chrysantemums (c. morifolum) were used for melon aphid plant foliar bioassays.
Flowering plants were infested and pre-count population size for each plant were taken and number of mean of aphids nymphs per leaf calculated. The plants were sprayed to runoff (about 5 ml) with an aqueous formulation containing 1,000 ppm, 3,000 ppm, and 10,000 ppm concentration of cinnamic aldehyde, and a negative control containing only H2O. After 36 hours, the number of insects on the leaves sprayed with a given test formulation was determined and compared with that of insects on leaves sprayed with negative control only. Mean aphid nymphs per leaf were determined to be less than 10 for each cinnamic aldehyde concentration compared to a pre-count mean of about 60.

[3] = test system: Adult male cockroaches (Dictyoptera; Blattelidae); assay: German cockroach topical application bioassay; type: in vivo, German cockroaches; conditions: 2% (20,000 ppm) in aqueous vehicle (2% Tween 80, 6% NaHCO3); 5 ml spray; within five minutes
Experimental: Adult male cockroaches (Dictyoptera; Blattelidae) were used to evaluate insecticidal activity of cinnamic aldehyde and/or coniferyl aldehyde by a topical application method.
Twenty cockroaches were placed in stainless steel pails (20 liter) with lids. After one week provisioned with food, water and harborage, they were sprayed with 5 ml of a test formulation at arm's length (approximately 1 meter) using a Gilmour spray bottle. The number of dead or moribund cockroaches at 5 minutes, 30 minutes, 1 hour and 12 hours after treatment was counted and compared to those untreated (diluent only). Raid (active ingredients: permethrin, pyrethrins and PBO) was used as a positive control. Within five minutes, all cockroaches treated with 2% cinnamic aldehyde (20,000 ppm) in aqueous vehicle (2% Tween 80, 6% NaHCO3) were dead, as were all those treated with Raid. Ten percent of those treated with vehicle alone were dead in 30 minutes, with no further increase in mortality up to 12 hours.

[4] = test system: two-spotted spider mite, Tetranychus urticae; assay: Spider mite treated petri dish contact bioassay; type: in vivo; conditions: Tetranychus urticae, 24 hours contact, read-out: Percent Mortality (24 hours)
Experimental: Activity of cinnamic aldehyde and/or coniferyl aldehyde against two-spotted spider mite, Tetranychus urticae is determined as follows. In a double blind experiment, intersurfaces of petri dishes (60 mm diameter) were treated with 100 μl of a test formulation and allowed to air dry and used within the hour. Twenty adult spider mites were put in each dish and the percent of mortality of the spider mites after 24 hours in contact with the treated dishes Was determined.

[5] = test system: larvae of Culex quinquefasciatus mosquito; assay: Mosquito larvicidal bioassay; type: in vivo
Experimental: Larvicidal activity of test formulations at varying concentrations was tested in a double blind bioassay on larvae of Culex quinquefasciatus mosquito. Twenty-five late 3rd-instar larvae of Culex quinquefasciatus were placed in 100×80 mm Purex #3250 glass containers. 250 ml distilled H2O was pipetted into the containers. One ml of test formulation containing 10 to 25,000 ppm cinnamic aldehyde in vehicle (2% by volume Tween 80 and 6% sodium bicarbonate in distilled H2O) was pipetted into each container. A control blank using 1 ml distilled H2O instead of a test formulation was also prepared.
All treated and untreated glass containers were placed in temperature controlled room at 29° C. Each container was evaluated for larvae mortality at 24 hour intervals. The number of dead larvae were reported. See Table 5 for results of the bioassay. Concentrations above 5,000 ppm cinnamic aldehyde gave 90% mortality at 24 and 48 hours.

[6] = 24 h, read-out: Percent Mortality CNMA (PGXL)
[7] = 1 ml of 100 ppm formulation in 250 ml H2O
[8] = 1 ml of 2,500 ppm formulation in 250 ml H2O
[9] = 1 ml of 5,000 ppm formulation in 250 ml H2O
[10] = 1 ml of 12,500 ppm formulation in 250 ml H2O
[11] = 1 ml of 25,000 ppm formulation in 250 ml H2O

O=C/C=C/c1ccccc1 [CNMA, cinnamic aldehyde]
mosquitos killed ([1]; 10 ppm added to the filter paper, in the absence of saponin): 78% | mosquitos killed ([1]; 10 ppm added to the filter paper, with saponin): 5% | mortality at 10 ppm [1, 6]: 78% | mortality at 100 ppm [1, 6]: 100% | mortality at 2500 ppm [1, 6]: 95% | mortality at 5000 ppm [1, 6]: 100% | mortality at 12500 ppm [1, 6]: 100% | mortality at 25000 ppm [1, 6]: 100% | mosquitos killed ([1]; concentrations down to 100 ppm added to the filter paper): 100% | Mean aphid nymphs per leaf [2]: less than 10 | cockroaches dead [3]: all | mortality at 10 ppm ([4]; 10 ppm in 2% Tween 80, 6% NaHCO3): 51.7% | mortality at 100 ppm ([4]; 100 ppm in 2% Tween 80, 6% NaHCO3): 56% | mortality at 2500 ppm ([4]; 2,500 ppm in 2% Tween 80, 6% NaHCO3): 78% | mortality at 5000 ppm ([4]; 5,000 ppm in 2% Tween 80, 6% NaHCO3): 66.4% | mortality at 12500 ppm ([4]; 12,500 ppm in 2% Tween 80, 6% NaHCO3): 98.6% | mortality at 25000 ppm ([4]; 25,000 ppm in 2% Tween 80, 6% NaHCO3): 99.2% | Percent Mortality (time) 24 hours ([5]; 1 ml of 10 ppm formulation (2% Tween 80, 6% sodium bicarbonate) in 250 ml H2O): 0% | Percent Mortality (time) 48 hours ([5]; 1 ml of 10 ppm formulation in 250 ml H2O): 0% | Percent Mortality (time) 24 hours [5, 7]: 2% | Percent Mortality (time) 48 hours [5, 7]: 2% | Percent Mortality (time) 24 hours [5, 8]: 4% | Percent Mortality (time) 48 hours [5, 8]: 4% | Percent Mortality (time) 24 hours [5, 9]: 8% | Percent Mortality (time) 48 hours [5, 9]: 20% | Percent Mortality (time) 24 hours [5, 10]: 90% | Percent Mortality (time) 48 hours [5, 10]: 90% | Percent Mortality (time) 24 hours [5, 11]: 100% | Percent Mortality (time) 48 hours [5, 11]: 100% | mortality ([5]; concentrations above 5,000 ppm, at 24 and 48 hours): 90%
